Experimental findings from patent US11497813B2, “Bortezomib conjugates and methods using same” (Frank EBETINO et al., priority 2015, dated 2022) are described below.

Data set [1] relates to mice. Briefly: Survival of mice treated with Btz. The class given is in vivo, mouse. The source says: BP-Btz is expected to have a higher efficacy on 1) reducing OVX-induced bone loss and 2) promoting fracture healing in aged mice with lesser adverse systemic effects than those of Btz. A critical difference between BP-Btz and Btz is that in vivo BP-Btz brings Btz to bone, thereby exerting its bioactivity locally, while Btz can exert its bioactivity systemically. It is hypothesized that BP-Btz conjugates should have similar or better positive bioactivities than Btz on bone volume, but with a significant reduction in side effects. In humans, the toxicities of Btz include peripheral neuropathy and thrombocytopenis (Weathington and Mallampalli, 2014, J. Clin. Invest. 124:6-12). Little is known the toxicity of Btz in mice. […] Although not wishing to be bound by any particular theory, these adverse effects are thought to be due to the systemic distribution of the drug. Thus, the generation of bone-targeted Btz could meet a critical clinical need, by and increasing the local drug concentration to capitalize on the efficacy of BTz while reducing systemic side effects. Because proteasome inhibitors could increase bone volume in normal and OVX mice, and promote fracture healing in adult mice (Khedgikar et al., 2013, Cell Death Dis. 4:e778; Maseda et al., 2008, Cell Death Differ. 15:600-612), OVX and fracture models are used to examine the efficacy of the leading BP-Btz conjugates on bone. […]

Data set [2] concerns Ub-proteins. As to the kind of experiment: Duration of ubiquitinization effect (FIG. 18). As to conditions: compared with Btz.
Data set [3] has as its system human MPCs. Briefly: Osteoblast differentiation of human MPCs/MSCs (ALP staining). It is filed as cell-based. The procedure: FIG. 5A is a scheme of an exemplary synthesis of compound BP-Btz1. FIG. 5B is a series of images of bone slices pre-incubated with 1 μM BP-Btz1, Btz, or bisphosphonate (BP) overnight. Drug solutions were removed and bone slices were washed with PBS extensively. […] (BM) cells from UB^G76V-GFP mice were cultured on bone slices in the presence of M-CSF and RANKL for 9 days. Top images (a): GFP^+ cells were observed under a fluorescence microscope and GFP signal intensity was quantified. Middle images (b): bone slices were fixed and subjected to TRAP staining for osteoclasts (OCs). OC #/slice were counted. Bottom images (c): cells were removed from slices. Toluidine blue staining was performed and pit areas/slice were counted. […] The ALP^+ areas were measured by Image J. *P<0.05 vs. Btz-treated cells.
1. […] Following proteasome inhibitor administration, Ub^G76V accumulates and GFP fluorescence is readily apparent. GFP^+ OCs were detected at 4 and 8 hrs after adding Btz to OC cultures, which disappeared at 24 hrs. […] The number and area of OCs and resorption pits are assessed. The appearance, intensity and distribution of GFP^+ cells on bone slices and plastic surrounding bone slices during OC formation is observed and recorded. […] Area of ALP^+ and mineralized bone nodule, and the expression levels of OB marker genes (ALP, osteocalcin, Runx2) are measured. […]

In turn, `CC(C)C[C@H](NC(=O)[C@H](Cc1ccccc1)NC(=O)c1cnccn1)B(O)O` [Btz, [(1R)-3-methyl-1-[[(2S)-1-oxo-3-phenyl-2[(pyrazinylcarbonyl)amino]propyl]amino]butyl] boronic acid] gave a survival rate in data set [1] (aged mice) of 53%. The compound further returned a survival in data set [1] (young mice) of 94%.

Turning to `CC(C)C[C@H](NC(=O)[C@H](Cc1ccccc1)NC(=O)c1cnccn1)B1OCCN(CCOC(=O)NC(P(=O)(O)O)P(=O)(O)O)CCO1` [BP-Btz1], in data set [2], the ubiquitinization effect result was “more sustained ubiquitinization effect than Btz”. For the same compound, the osteoblast differentiation result in data set [3] was “stimulates osteoblast differentiation”.
